Data set [1] is described as follows: Cmax in CD1 mouse lung assessed as (12aR)-12-[(S)-(3,4-Difluorophenyl)(phenyl)methyl]-7-hydroxy3,4,12,12a-tetrahydro-1H-[1,4]oxazino[3,4-c]pyrido[2,1-f ][1,2,4]triazine-6,8-dione level at 15 mg/kg, po administered as single dose by LC-MS/MS analysis. It is filed as ADME, organism-based. Set-up: dose 15 mg/kg, route oral. To be noted: in vivo.
Data set [2] can be described thus: AUClast in CD1 mouse lung assessed as (12aR)-12-[(S)-(3,4-Difluorophenyl)(phenyl)methyl]-7-hydroxy3,4,12,12a-tetrahydro-1H-[1,4]oxazino[3,4-c]pyrido[2,1-f ][1,2,4]triazine-6,8-dione level at 15 mg/kg, po administered as single dose by LC-MS/MS analysis. The data set is classed as ADME, organism-based. To be noted: in vivo.
Data set [3] in a line: Ratio of AUClast in CD1 mouse lung to plasma assessed as (12aR)-12-[(S)-(3,4-Difluorophenyl)(phenyl)methyl]-7-hydroxy3,4,12,12a-tetrahydro-1H-[1,4]oxazino[3,4-c]pyrido[2,1-f ][1,2,4]triazine-6,8-dione level at 15 mg/kg, po administered as single dose by LC-MS/MS analysis. The data set is classed as ADME, organism-based. The following applies: other tissue.
Data set [4] can be described thus: Stability in simulated gastric fluid assessed as parent compound remaining at 1 uM measured after 4 hrs at pH 1.2 by LC-MS/MS analysis. The data set is classed as physicochemical. To be noted: read-out: Stability.
A short description of data set [5]: Stability in simulated intestinal fluid assessed as parent compound remaining at 1 uM measured after 4 hrs at pH 1.2 by LC-MS/MS analysis. The data set is classed as physicochemical. To be noted: read-out: Stability.
A short description of data set [6]: Cmax in CD1 mouse plasma assessed as (12aR)-12-[(S)-(3,4-Difluorophenyl)(phenyl)methyl]-7-hydroxy3,4,12,12a-tetrahydro-1H-[1,4]oxazino[3,4-c]pyrido[2,1-f ][1,2,4]triazine-6,8-dione level at 15 mg/kg, po administered as single dose by LC-MS/MS analysis. Also noted: dose 15 mg/kg, route oral. The data set is classed as ADME, organism-based. The following applies: in vivo.

Data set [7] is described as follows: AUClast in CD1 mouse plasma assessed as (12aR)-12-[(S)-(3,4-Difluorophenyl)(phenyl)methyl]-7-hydroxy3,4,12,12a-tetrahydro-1H-[1,4]oxazino[3,4-c]pyrido[2,1-f ][1,2,4]triazine-6,8-dione level at 15 mg/kg, po administered as single dose by LC-MS/MS analysis. The data set is classed as ADME, organism-based. Also noted: dose 15 mg/kg, route oral, time 0 - last. To be noted: in vivo.

A short description of data set [8]: Oral bioavailability in CD1 mouse assessed as (12aR)-12-[(S)-(3,4-Difluorophenyl)(phenyl)methyl]-7-hydroxy3,4,12,12a-tetrahydro-1H-[1,4]oxazino[3,4-c]pyrido[2,1-f ][1,2,4]triazine-6,8-dione level at 15 mg/kg administered as single dose by LC-MS/MS analysis. It is filed as ADME, organism-based. To be noted: in vivo.
A short description of data set [9]: Ratio of Cmax in CD1 mouse lung to plasma assessed as (12aR)-12-[(S)-(3,4-Difluorophenyl)(phenyl)methyl]-7-hydroxy3,4,12,12a-tetrahydro-1H-[1,4]oxazino[3,4-c]pyrido[2,1-f ][1,2,4]triazine-6,8-dione level at 15 mg/kg, po administered as single dose by LC-MS/MS analysis. The following applies: other tissue. The data set is classed as ADME, organism-based.
Data set [10] in a line: Ratio of AUClast in CD1 mouse lung to plasma assessed as (12aR)-12-[(R)-(3,4-Difluorophenyl)(phenyl)methyl]-7-hydroxy3,4,12,12a-tetrahydro-1H-[1,4]oxazino[3,4-c]pyrido[2,1-f ][1,2,4]-triazine-6,8-dione level at 15 mg/kg, po administered as single dose by LC-MS/MS analysis. The data set is classed as ADME, organism-based. To be noted: other tissue.
Data set [11] can be described thus: Cmax in CD1 mouse lung assessed as (12aR)-12-[(R)-(3,4-Difluorophenyl)(phenyl)methyl]-7-hydroxy3,4,12,12a-tetrahydro-1H-[1,4]oxazino[3,4-c]pyrido[2,1-f ][1,2,4]-triazine-6,8-dione level at 15 mg/kg, po administered as single dose by LC-MS/MS analysis. Set-up: dose 15 mg/kg, route oral. To be noted: in vivo. It is filed as ADME, organism-based.
A short description of data set [12]: Cmax in CD1 mouse plasma assessed as (12aR)-12-[(R)-(3,4-Difluorophenyl)(phenyl)methyl]-7-hydroxy3,4,12,12a-tetrahydro-1H-[1,4]oxazino[3,4-c]pyrido[2,1-f ][1,2,4]-triazine-6,8-dione level at 15 mg/kg, po administered as single dose by LC-MS/MS analysis. The data set is classed as ADME, organism-based. Set-up: dose 15 mg/kg, route oral. To be noted: in vivo.

A short description of data set [13]: AUClast in CD1 mouse lung assessed as (12aR)-12-[(R)-(3,4-Difluorophenyl)(phenyl)methyl]-7-hydroxy3,4,12,12a-tetrahydro-1H-[1,4]oxazino[3,4-c]pyrido[2,1-f ][1,2,4]-triazine-6,8-dione level at 15 mg/kg, po administered as single dose by LC-MS/MS analysis. The data set is classed as ADME, organism-based. The following applies: in vivo.
A short description of data set [14]: AUClast in CD1 mouse plasma assessed as (12aR)-12-[(R)-(3,4-Difluorophenyl)(phenyl)methyl]-7-hydroxy3,4,12,12a-tetrahydro-1H-[1,4]oxazino[3,4-c]pyrido[2,1-f ][1,2,4]-triazine-6,8-dione level at 15 mg/kg, po administered as single dose by LC-MS/MS analysis. Also noted: dose 15 mg/kg, route oral, time 0 - last. The following applies: in vivo. The data set is classed as ADME, organism-based.

Data set [15] is described as follows: Ratio of Cmax in CD1 mouse lung to plasma assessed as (12aR)-12-[(R)-(3,4-Difluorophenyl)(phenyl)methyl]-7-hydroxy3,4,12,12a-tetrahydro-1H-[1,4]oxazino[3,4-c]pyrido[2,1-f ][1,2,4]-triazine-6,8-dione level at 15 mg/kg, po administered as single dose by LC-MS/MS analysis. The data set is classed as ADME, organism-based. To be noted: other tissue.
A short description of data set [16]: Oral bioavailability in CD1 mouse assessed as (12aR)-12-[(R)-(3,4-Difluorophenyl)(phenyl)methyl]-7-hydroxy3,4,12,12a-tetrahydro-1H-[1,4]oxazino[3,4-c]pyrido[2,1-f ][1,2,4]-triazine-6,8-dione level at 15 mg/kg administered as single dose by LC-MS/MS analysis. It is filed as ADME, organism-based. To be noted: in vivo.

For orientation: Cmax means the highest concentration seen after dosing. With `COC(=O)OCOc1c2n(ccc1=O)N([C@@H](c1ccccc1)c1ccc(F)c(F)c1)[C@@H]1COCCN1C2=O`, the Cmax in data set [1] was 1476 ng/g; in data set [6], 397 ng/mL. Further, the figures for the AUClast in data set [2] and in data set [7] were 8806 ng·h/g and 2078 ng·h/mL, respectively. Besides, in [3], the “Ratio AUC” value is on record as 4.2. The remaining at 4 h, 1 µM in [4] is 97.7%; in [5] it was 95.8%. The F in data set [8] is recorded as 29.9%. For the same compound, the Ratio in [9] is listed as 3.7.
For `COC(=O)OCOc1c2n(ccc1=O)N([C@H](c1ccccc1)c1ccc(F)c(F)c1)[C@@H]1COCCN1C2=O`, the “Ratio AUC” value in data set [10] worked out at 3.2. In addition, the Cmax in data set [11] is 4464 ng/g; in [12] it was 2090 ng/mL. Besides, the AUClast was determined as 30130 ng·h/g in data set [13] and 9448 ng·h/mL in data set [14]. Further, the Ratio in data set [15] is listed as 2.1. Also, the F in data set [16] was determined as 56.9%.

(Values after ChEMBL document CHEMBL4622979, “Non-rigid Diarylmethyl Analogs of Baloxavir as Cap-Dependent Endonuclease Inhibitors of Influenza Viruses” (J Med Chem, 2020).)
